According to ChEMBL document CHEMBL1201862, “PubChem BioAssay data set” (2004):
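Briefly, cells in 96-well plates were exposed to five compound concentrations for 48 h, and endpoints were estimated by linear interpolation. The concentration for 50% growth inhibition is given as GI50.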 Calls of active or inactive are those of the source. No stated cut-off is given here; in the data, active = GI50 up to about 1.1 µM and inactive = higher.

Assays:
Assay in all cases: NCI tumour cell line growth inhibition, 48 h
[1] = test system: OVCAR-4
[2] = test system: MDA-MB-435
[3] = test system: A549
[4] = test system: HOP-62
[5] = test system: MDA-MB-231
[6] = test system: SN12C
[7] = test system: CAKI-1
[8] = test system: U-251
[9] = test system: RPMI-8226
[10] = test system: OVCAR-3
[11] = test system: SNB-75
[12] = test system: SF-295
[13] = test system: MOLT-4
[14] = test system: NCI-H522
[15] = test system: OVCAR-5
[16] = test system: OVCAR-8
[17] = test system: PC-3
[18] = test system: SK-MEL-2
[19] = test system: HCC 2998
[20] = test system: Hs-578T

Measured: GI50

CSc1ncc2c(n1)C(C#N)C1Sc3ccccc3N1C2=O (centres undefined)
inactive: [1] > 100 µM | [2] > 100 µM | [3] > 100 µM | [4] 37.5 µM | [5] > 100 µM | [6] > 100 µM | [7] > 100 µM | [8] 34.5 µM | [9] > 100 µM | [10] > 100 µM | [11] 22.9 µM | [12] 36 µM | [13] > 100 µM | [14] 62.2 µM | [15] > 100 µM | [16] > 100 µM

BrC1=C(Br)C2(SCCS2)[C@H]2C[C@@H]1c1ccccc12
inactive: [1] 29.9 µM | [17] 95.5 µM | [2] 4.4 µM | [18] 41.2 µM | [3] > 54.1 µM | [19] 21.3 µM | [4] > 100 µM | [5] 60.8 µM | [6] > 91.2 µM | [7] > 91.2 µM | [8] 37.8 µM | [9] 13.9 µM | [10] > 100 µM | [11] 16.2 µM | [12] > 100 µM | [13] 13.9 µM | [14] 13.2 µM | [15] > 100 µM | [16] > 100 µM

O=[As](O)(O)c1cc(/N=N/c2ccc(-c3ccc(/N=N/c4cc([As](=O)(O)O)c(O)cc4O)cc3)cc2)c(O)cc1O
inactive: [1] > 42.9 µM | [18] > 100 µM | [3] > 100 µM | [19] > 100 µM | [4] > 100 µM | [6] > 100 µM | [7] > 79.6 µM | [8] > 100 µM | [9] > 100 µM | [10] > 52.8 µM | [11] > 100 µM | [12] > 100 µM | [13] > 100 µM | [14] > 100 µM | [15] > 69.5 µM | [16] > 100 µM

Cc1cc(S(=O)(=O)Nc2nc(N)nc(N3N=CCC3C)n2)c(S)cc1Cl (centres undefined)
inactive: [1] > 10 µM | [17] > 10 µM | [18] > 10 µM | [3] > 10 µM | [19] > 10 µM | [4] > 10 µM | [20] > 10 µM | [6] > 10 µM | [7] > 10 µM | [8] > 10 µM | [9] > 10 µM | [10] > 10 µM | [11] > 10 µM | [12] > 10 µM | [13] > 10 µM | [14] > 10 µM | [15] > 10 µM | [16] > 10 µM

O=C(O)c1cc(Cl)cc2c1NC1(N2)C(=O)Nc2ccccc21 (centres undefined)
inactive: [1] > 100 µM | [17] > 100 µM | [2] > 100 µM | [18] > 100 µM | [3] > 100 µM | [19] > 100 µM | [4] > 100 µM | [5] > 100 µM | [6] > 100 µM | [7] > 100 µM | [8] 42.5 µM | [9] > 100 µM | [10] > 100 µM | [11] 97.1 µM | [12] > 100 µM | [13] > 100 µM | [14] > 100 µM | [15] > 100 µM | [16] 39.6 µM

CCCCCCCCCC(=O)CC(=O)c1ccc(O)cc1O
inactive: [1] 42.1 µM | [18] 18.6 µM | [3] 31.3 µM | [19] 21.3 µM | [4] 19.8 µM | [6] 27.3 µM | [7] 23.7 µM | [8] 26.9 µM | [9] 19.5 µM | [10] 22.6 µM | [11] 33.6 µM | [12] 25.6 µM | [13] 17.6 µM | [14] 18.6 µM | [15] 21.1 µM | [16] 22.6 µM

COP1(=O)NCc2ncccc2O1 (centres undefined)
inactive: [1] > 100 µM | [17] > 100 µM | [2] > 100 µM | [18] > 100 µM | [3] > 100 µM | [19] > 100 µM | [4] > 100 µM | [5] > 100 µM | [6] > 100 µM | [7] > 100 µM | [8] > 100 µM | [9] > 100 µM | [10] > 100 µM | [11] > 100 µM | [12] > 100 µM | [13] > 100 µM | [15] > 100 µM | [16] > 100 µM

CCCCCCCCCCCCCCCCCCNC(=S)N/C=C1\C(=O)Nc2ccccc2C1=O
inactive: [1] 20.6 µM | [2] 19.5 µM | [18] 21.4 µM | [3] 21.1 µM | [19] 16.3 µM | [4] 15.6 µM | [5] 14.9 µM | [6] 22.4 µM | [7] 16.9 µM | [8] 19.2 µM | [10] 18.5 µM | [11] 13.2 µM | [12] 21.4 µM | [13] 12.7 µM | [15] 15.4 µM | [16] 15.6 µM

Nc1nc(N)c(-c2ccccc2)c(CCC(=O)Nc2ccc(Cl)cc2)n1
inactive: [1] > 100 µM | [18] > 100 µM | [3] > 100 µM | [19] > 100 µM | [4] > 100 µM | [6] > 100 µM | [7] > 100 µM | [8] > 100 µM | [9] > 100 µM | [10] > 100 µM | [11] > 100 µM | [12] > 100 µM | [13] > 100 µM | [14] > 100 µM | [15] > 100 µM | [16] > 100 µM

COC1=CCC=C(C[C@@H]2NCCc3cc(OC)c(OC)cc32)C1
inactive: [1] > 100 µM | [18] > 100 µM | [3] > 100 µM | [19] > 100 µM | [4] > 100 µM | [6] > 100 µM | [7] > 100 µM | [8] > 100 µM | [9] > 100 µM | [10] > 100 µM | [11] > 100 µM | [12] > 100 µM | [13] > 100 µM | [14] > 100 µM | [15] > 100 µM | [16] > 100 µM

N/N=C(\Nc1ccccc1)SCc1ccccc1
inactive: [1] > 100 µM | [17] > 100 µM | [2] > 100 µM | [18] > 100 µM | [3] > 100 µM | [19] > 100 µM | [4] > 100 µM | [5] > 100 µM | [6] > 100 µM | [7] > 100 µM | [8] > 100 µM | [9] > 100 µM | [10] > 100 µM | [11] 41.7 µM | [12] > 100 µM | [13] > 100 µM | [14] > 100 µM | [15] > 100 µM | [16] > 100 µM

Cc1cccc(NC(=O)C(=O)C(C(=O)c2ccc3ccccc3c2)C2OC(=O)c3ccccc32)c1C (centres undefined)
inactive: [1] 10.9 µM | [18] 13.2 µM | [3] 19.1 µM | [19] 6.03 µM | [4] 10.7 µM | [6] 15.9 µM | [7] 11.9 µM | [8] 5.21 µM | [9] 6.98 µM | [10] 12.9 µM | [11] 8.49 µM | [13] 3.78 µM | [14] 14.1 µM | [15] 21.7 µM | [16] 10.3 µM

COc1cc2ccc3c4cc(OC)c(OC(C)C)cc4cnc3c2cc1OC
inactive: [1] > 100 µM | [18] > 100 µM | [3] > 100 µM | [19] > 100 µM | [4] > 100 µM | [6] > 100 µM | [7] > 100 µM | [8] > 100 µM | [9] > 100 µM | [10] > 100 µM | [11] > 100 µM | [12] > 100 µM | [13] > 100 µM | [14] > 100 µM | [15] > 100 µM | [16] > 100 µM

CC(C)(C)OC(=O)[C@@H]1ON2O[C@H](OC3CCCC3(c3ccccc3)c3ccccc3)C[C@H]3OC(=O)[C@@H]1[C@H]32 (some centres undefined)
inactive: [1] 14.9 µM | [17] 26.8 µM | [2] 57.9 µM | [18] 14.8 µM | [3] 83.2 µM | [4] 61.1 µM | [5] > 100 µM | [6] 58.5 µM | [7] 53.5 µM | [8] > 100 µM | [10] 16.1 µM | [11] 25.8 µM | [12] > 100 µM | [13] > 10 µM | [14] 32.2 µM | [15] > 100 µM

COC(=O)C1=C(C)N(NC(=O)c2cccc(Cl)c2)C(C)(O)C12CCOC2=O (centres undefined)
inactive: [1] > 100 µM | [18] > 100 µM | [3] > 100 µM | [19] > 100 µM | [4] > 100 µM | [6] > 100 µM | [7] > 100 µM | [8] > 100 µM | [9] > 100 µM | [10] > 100 µM | [11] > 100 µM | [12] > 100 µM | [13] > 100 µM | [14] > 100 µM | [15] > 100 µM | [16] > 100 µM

Cc1c(O)c(O)cc[n+]1C1OC(CO)C(O)C1O (centres undefined)
inactive: [1] > 100 µM | [18] > 100 µM | [3] > 100 µM | [19] > 100 µM | [6] > 100 µM | [7] > 100 µM | [8] > 100 µM | [9] > 100 µM | [11] > 100 µM | [14] > 100 µM | [15] > 100 µM | [16] > 100 µM
